molecular target: T1, GCN2 (Homo sapiens, UniProt Q9P2K8); test: TR-FRET biochemical assay for inhibition of GCN2 (Example 108, for Examples 73-105)
T1 sequence (Q9P2K8 whole entry): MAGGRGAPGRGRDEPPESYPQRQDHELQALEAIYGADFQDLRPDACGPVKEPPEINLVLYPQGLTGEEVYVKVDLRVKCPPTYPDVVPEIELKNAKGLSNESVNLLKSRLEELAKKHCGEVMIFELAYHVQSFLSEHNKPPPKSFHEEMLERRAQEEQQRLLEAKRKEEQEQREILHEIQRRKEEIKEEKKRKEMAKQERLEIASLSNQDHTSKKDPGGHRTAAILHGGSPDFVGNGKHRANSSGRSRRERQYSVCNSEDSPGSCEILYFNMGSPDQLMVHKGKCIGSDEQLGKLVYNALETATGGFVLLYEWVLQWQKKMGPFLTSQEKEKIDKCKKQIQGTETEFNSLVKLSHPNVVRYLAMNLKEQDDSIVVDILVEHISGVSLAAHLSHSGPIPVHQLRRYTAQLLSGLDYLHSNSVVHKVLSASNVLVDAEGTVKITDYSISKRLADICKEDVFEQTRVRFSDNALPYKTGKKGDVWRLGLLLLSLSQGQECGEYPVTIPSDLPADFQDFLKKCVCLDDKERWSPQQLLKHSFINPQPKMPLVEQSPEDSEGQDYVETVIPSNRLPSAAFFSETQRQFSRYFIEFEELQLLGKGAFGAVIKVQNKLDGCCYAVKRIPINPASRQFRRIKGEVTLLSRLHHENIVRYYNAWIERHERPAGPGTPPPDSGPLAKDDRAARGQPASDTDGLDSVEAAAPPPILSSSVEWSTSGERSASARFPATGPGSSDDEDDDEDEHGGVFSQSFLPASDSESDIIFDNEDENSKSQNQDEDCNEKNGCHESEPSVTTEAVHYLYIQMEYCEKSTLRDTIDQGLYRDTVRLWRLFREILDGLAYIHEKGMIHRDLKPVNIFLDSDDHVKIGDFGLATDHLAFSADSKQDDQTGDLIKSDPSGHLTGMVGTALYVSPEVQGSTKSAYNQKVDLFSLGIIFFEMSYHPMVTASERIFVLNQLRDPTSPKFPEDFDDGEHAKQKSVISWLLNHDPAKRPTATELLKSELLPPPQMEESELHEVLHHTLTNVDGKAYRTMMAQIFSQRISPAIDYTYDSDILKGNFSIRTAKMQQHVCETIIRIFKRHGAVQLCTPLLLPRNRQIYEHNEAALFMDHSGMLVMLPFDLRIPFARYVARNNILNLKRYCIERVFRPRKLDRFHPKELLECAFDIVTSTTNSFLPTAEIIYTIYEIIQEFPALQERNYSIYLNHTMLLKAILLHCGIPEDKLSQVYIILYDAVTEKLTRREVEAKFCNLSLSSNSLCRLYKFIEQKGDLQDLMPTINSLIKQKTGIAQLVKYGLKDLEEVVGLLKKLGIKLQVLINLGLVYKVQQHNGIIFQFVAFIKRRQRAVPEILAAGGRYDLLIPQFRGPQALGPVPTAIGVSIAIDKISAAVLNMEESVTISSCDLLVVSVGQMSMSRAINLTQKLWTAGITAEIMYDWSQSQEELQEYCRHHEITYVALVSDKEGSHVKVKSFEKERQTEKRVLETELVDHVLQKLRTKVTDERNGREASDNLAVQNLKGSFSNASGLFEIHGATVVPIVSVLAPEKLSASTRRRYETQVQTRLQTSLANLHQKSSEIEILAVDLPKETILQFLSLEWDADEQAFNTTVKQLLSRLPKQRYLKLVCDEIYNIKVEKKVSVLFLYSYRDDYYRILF

Row | IC50 | Structure (SMILES)
1 | < 500 nM | COc1ncc(Cl)cc1S(=O)(=O)Nc1ccc(F)c(-c2ccc3c(C(=O)NC4CC4)n[nH]c3c2F)c1F [Example 81, 6-[3-(5-Chloro-2-methoxypyridine-3-sulfonamido)-2,6-difluorophenyl]-N-cyclopropyl-7-fluoro-1H-indazole-3-carboxamide]
2 | < 500 nM | COc1ncc(Cl)cc1S(=O)(=O)Nc1ccc(F)c(-c2ccc3c(C(=O)NC(C)CN)n[nH]c3c2F)c1F (centres unmarked) [Example 95, N-(1-Aminopropan-2-yl)-6-[3-(5-chloro-2-methoxypyridine-3-sulfonamido)-2,6-difluorophenyl]-7-fluoro-1H-indazole-3-carboxamide]
3 | < 500 nM | COc1ncc(Cl)cc1S(=O)(=O)Nc1ccc(F)c(-c2ccc3c(C(=O)NC4CCCCC4O)n[nH]c3c2F)c1F (centres unmarked) [Example 88, 6-[3-(5-Chloro-2-methoxypyridine-3-sulfonamido)-2,6-difluorophenyl]-7-fluoro-N-(2-hydroxycyclohexyl)-1H-indazole-3-carboxamide]

molecular target: T1, GCN2; test: TR-FRET assay for inhibition of GCN2 (Example 107, for Examples 40-72)

Row | Structure (SMILES) | IC50
4 | CCNC(=O)c1n[nH]c2c(F)c(-c3c(F)ccc(NS(=O)(=O)c4cc(Cl)cnc4OC)c3F)ccc12 [Example 49, 6-(3-((5-Chloro-2-methoxypyridine)-3-sulfonamido)-2,6-difluorophenyl)-N-ethyl-7-fluoro-1H-indazole-3-carboxamide] | < 500 nM
5 | CNC(=O)c1n[nH]c2c(F)c(-c3c(F)ccc(NS(=O)(=O)c4cc(Cl)cnc4C)c3F)ncc12 [Example 72, 6-[3-(5-Chloro-2-methylpyridine-3-sulfonamido)-2,6-difluorophenyl]-7-fluoro-N-methyl-1H-pyrazolo[4,3-c]pyridine-3-carboxamide] | < 500 nM
6 | CNC(=O)c1n[nH]c2c(F)c(-c3c(F)ccc(NS(=O)(=O)c4cc(C#N)cnc4OC)c3F)ncc12 [Example 71, 6-[3-(5-Cyano-2-methoxypyridine-3-sulfonamido)-2,6-difluorophenyl]-7-fluoro-N-methyl-1H-pyrazolo[4,3-c]pyridine-3-carboxamide] | < 500 nM
7 | CNC(=O)c1n[nH]c2c(F)c(-c3c(F)ccc(NS(=O)(=O)c4cccc(CO)c4)c3F)ccc12 [Example 41, 6-[2,6-Difluoro-3-[3-(hydroxymethyl)benzenesulfonamido]phenyl]-7-fluoro-N-methyl-1H-indazole-3-carboxamide] | 500 to 2500 nM
8 | COc1ncc(Cl)cc1S(=O)(=O)Nc1ccc(F)c(-c2ccc3c(C(=O)NC4CCNC4=O)n[nH]c3c2F)c1F (centres unmarked) [Example 54, 6-[3-(5-Chloro-2-methoxypyridine-3-sulfonamido)-2,6-difluorophenyl]-7-fluoro-N-(2-oxopyrrolidin-3-yl)-1H-indazole-3-carboxamide] | < 500 nM
9 | CCCNC(=O)c1n[nH]c2c(F)c(-c3c(F)ccc(NS(=O)(=O)c4cc(Cl)cnc4OC)c3F)ccc12 [Example 58, 6-[3-(5-Chloro-2-methoxypyridine-3-sulfonamido)-2,6-difluorophenyl]-7-fluoro-N-propyl-1H-indazole-3-carboxamide] | < 500 nM
10 | CCCC(C)NC(=O)c1n[nH]c2c(F)c(-c3c(F)ccc(NS(=O)(=O)c4cc(Cl)cnc4OC)c3F)ccc12 (centres unmarked) [Example 59, 6-[3-(5-Chloro-2-methoxypyridine-3-sulfonamido)-2,6-difluorophenyl]-7-fluoro-N-(pentan-2-yl)-1H-indazole-3-carboxamide] | < 500 nM
11 | CNC(=O)c1n[nH]c2c(F)c(-c3c(F)ccc(NS(=O)(=O)c4cc(C#N)cnc4OC(F)F)c3F)ccc12 [Example 46, 6-[3-[5-Cyano-2-(difluoromethoxy)pyridine-3-sulfonamido]-2,6-difluorophenyl]-7-fluoro-N-methyl-1H-indazole-3-carboxamide] | < 500 nM
12 | CNC(=O)c1n[nH]c2c(F)c(-c3c(F)ccc(NS(=O)(=O)c4cccc5[nH]cnc45)c3F)ccc12 [Example 62, 6-[3-(1H-1,3-Benzodiazole-4-sulfonamido)-2,6-difluorophenyl]-7-fluoro-N-methyl-1H-indazole-3-carboxamide] | 500 to 2500 nM
13 | CNC(=O)c1n[nH]c2c(F)c(-c3c(F)ccc(NS(=O)(=O)c4ccc5ccoc5c4)c3F)ccc12 [Example 68] | 500 to 2500 nM

Now from value to molecule:

Row | IC50 | Structure (SMILES)
14 | < 500 nM | CNC(=O)c1n[nH]c2c(F)c(-c3c(F)ccc(NS(=O)(=O)c4cc(F)cc(CO)c4)c3F)ccc12 [Example 42, 6-[2,6-difluoro-3-[3-fluoro-5-(hydroxymethyl)benzenesulfonamido]phenyl]-7-fluoro-N-methyl-1H-indazole-3-carboxamide]
15 | < 500 nM | CNC(=O)c1n[nH]c2c(F)c(-c3c(F)ccc(NS(=O)(=O)c4cc(Cl)cnc4OC)c3F)cc(C)c12 [Example 47, 6-[3-(5-chloro-2-methoxypyridine-3-sulfonamido)-2,6-difluorophenyl]-7-fluoro-N,4-dimethyl-1H-indazole-3-carboxamide]
16 | < 500 nM | CNC(=O)c1n[nH]c2c(F)c(-c3c(F)ccc(NS(=O)(=O)c4cccc5ncn(C)c45)c3F)ccc12 [Example 63, 6-[2,6-Difluoro-3-(3-methyl-1,3-benzodiazole-4-sulfonamido)phenyl]-7-fluoro-N-methyl-1H-indazole-3-carboxamide]
17 | < 500 nM | CCC(C)NC(=O)c1n[nH]c2c(F)c(-c3c(F)ccc(NS(=O)(=O)c4cc(Cl)cnc4OC)c3F)ccc12 (centres unmarked) [Example 56, 6-[3-(5-Chloro-2-methoxypyridine-3-sulfonamido)-2,6-difluorophenyl]-7-fluoro-N-(sec-butyl)-1H-indazole-3-carboxamide]
18 | < 500 nM | CNC(=O)c1n[nH]c2c(F)c(-c3c(F)ccc(NS(=O)(=O)c4cccc5occc45)c3F)ccc12 [Example 61, 6-[3-(1-Benzofuran-4-sulfonamido)-2,6-difluorophenyl]-7-fluoro-N-methyl-1H-indazole-3-carboxamide]
19 | < 500 nM | COc1ncc(Cl)cc1S(=O)(=O)Nc1ccc(F)c(-c2ccc3c(C(=O)NC4CCNC4)n[nH]c3c2F)c1F (centres unmarked) [Example 57, 6-[3-(5-Chloro-2-methoxypyridine-3-sulfonamido)-2,6-difluorophenyl]-7-fluoro-N-(pyrrolidin-3-yl)-1H-indazole-3-carboxamide]
20 | < 500 nM | COc1ncc(Cl)cc1S(=O)(=O)Nc1ccc(F)c(-c2ccc3c(NC(C)=O)n[nH]c3c2F)c1F [Example 44, N-(6-(3-(5-chloro-2-methoxypyridine-3-sulfonamido)-2,6-difluorophenyl)-7-fluoro-1H-indazol-3-yl)acetamide]
21 | < 500 nM | CNC(=O)c1n[nH]c2c(F)c(-c3c(F)ccc(NS(=O)(=O)c4cc(F)cnc4C)c3F)ncc12 [Example 66, 6-[2,6-Difluoro-3-(5-fluoro-2-methylpyridine-3-sulfonamido)phenyl]-7-fluoro-N-methyl-1H-pyrazolo[4,3-c]pyridine-3-carboxamide]
22 | < 500 nM | CNC(=O)c1n[nH]c2c(F)c(-c3c(F)ccc(NS(=O)(=O)c4cc(F)cnc4OC)c3F)ncc12 [Example 70, 6-[2,6-Difluoro-3-(5-fluoro-2-methoxypyridine-3-sulfonamido)phenyl]-7-fluoro-N-methyl-1H-pyrazolo[4,3-c]pyridine-3-carboxamide]
23 | < 500 nM | CNC(=O)c1n[nH]c2c(F)c(-c3c(F)ccc(NS(=O)(=O)c4cc(Cl)cnc4OC(F)F)c3F)ccc12 [Example 45, 6-[3-[5-chloro-2-(difluoromethoxy)pyridine-3-sulfonamido]-2,6-difluorophenyl]-7-fluoro-N-methyl-1H-indazole-3-carboxamide]

Reference: US20220388964A1 (HiberCell, Inc., priority 2019, published 2022)
